Assay results published in patent publication US20040077651A1, “Remedies for cancer” (priority 2000, published 2004).

Biological target: T1, Human type-X sPLA2 (Homo sapiens, UniProt O15496)
T1 construct: made in house; unpurified culture supernatant
T1 sequence (O15496 43-165): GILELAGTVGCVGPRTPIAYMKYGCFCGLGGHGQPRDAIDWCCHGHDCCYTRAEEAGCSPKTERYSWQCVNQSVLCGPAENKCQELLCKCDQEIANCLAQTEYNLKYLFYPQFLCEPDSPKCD
Assay: Type-X sPLA2 inhibition test (chromogenic assay, diheptanoylthio PC)
Type: biochemical
Details: culture supernatant of CHO cells expressing human type-X sPLA2, 30 min at 40° C., absorbance at 405 nm
From the text: cDNA sequence encoding human type-X sPLA2 (Cupillard et al., J. Biol. Chem, 1997, 272, 15745-15752) was inserted into the downstream region of the promoter of pSVL SV40 Late Promoter Expression Vector (Amersham Pharmacia Biotech Inc.) that is an expression vector for mammalian cells. The obtained expression vector was transfected into the host CHO cells with a LipofectAMINE reagent (Gibco BRL Inc.) according to the manufacture's instruction to obtain the CHO cells stably expressing human type-X sPLA2. The transfected cell was cultured in α-MEM medium containing 10% fetal calf serum for 3 days and its culture supernatant was used for the measurement of each enzyme activity.
In order to identify and evaluate an inhibitor of type-X sPLA2, the following chromogenic assay is utilized. This assay has been applied for high volume screening using a 96-well microtiterplate. A general explanation for this assay is described in “Analysis of Human Synovial Fluid Phospholipase A2 on Short Chain Phosphatidylcholine-Mixed Micelles: Development of a Spectrophotometric Assay Suitable for a Micortiterplate Reader” (Analytical Biochemistry, 204, pp 190-197, 1992 by Laure. J. Reynolds. Lori L. Hughes and Edward A. Dennis.
Test compounds (or solvent blank) were added according to the alignment of plates that had been previously set. Human type-X sPLA2 was incubated (30 min at 40° C. (15 μl/well)) with diheptanoylthio PC (1 mM) in the presence of Triton X-100 (0.3 mM) and 5,5′-dithiobis(2-nitrobenzoic acid) (125 μM) in Tris-HCl buffer (25 mM, pH 7.5) containing CaCl2 (10 mM), KCl (100 mM), and bovine serum albumin (1.0 mg/mL). The changes in the absorbance at 405 nm were measured and the inhibition activities were calculated.
The IC50 value was determined by plotting the log concentration of the above-mentioned compounds (1)-(19) with respect to their inhibition values within 10% to 90% inhibitory range.

IC50 [nM] | SMILES
17 | CCCc1c(C(=O)C(N)=O)c2c(OCC(=O)O)nc(C)cn2c1CCc1ccccc1 [Compound 6]
5 | NC(=O)C1=CCCc2c1c1c(OCC(=O)O)cccn1c2Cc1ccccc1 [Compound 7]
10 | NC(=O)c1cccc2c1c1c(OCC(=O)O)cc(-c3ccco3)cc1n2Cc1ccccc1 [Compound 11]
